Values quoted from earlier work in US20260206768A1, “COMBINATION OF VARIOUS NITROGEN FIXING BACTERIA WITH VARIOUS BIOLOGICAL PRODUCTS TO ACHIEVE SYNERGISTIC EFFECTS” (Pivot Bio, Inc., priority 2022, published 2026).
Peptide text beside a SMILES is read from it.

Settings: for Useful pH range: buffering range

| Compound | Useful pH range | pKa at 25° C. |
| --- | --- | --- |
| O=S(=O)(O)CCN(CCO)CCO [BES] | 6.4-7.8 | 7.09 |
| O=S(=O)(O)CCNC1CCCCC1 [CHES, N-Cyclohexyl-2-aminoethanesulfonic acid] | 8.3-10.3 | – |
| O=P([O-])([O-])O.[K+].[K+] [K2HPO4, dipotassium phosphate] | 8.7-9.4 | – |
| O=S(=O)(O)CCCCNC1CCCCC1 [CABS] | 10.0-11.4 | 10.7 |
| OB(O)O [Boric acid] | 8.25-10.25 | – |
| O=P([O-])([O-])[O-].[K+].[K+].[K+] [K3PO4] | 11.5-12.3 | – |
| CC(=O)O [Acetic acid, Ethanoic acid] | 3.8-5.8 | – |
| NC(=O)CN(CC(=O)O)CC(=O)O [ADA] | 6.0-7.2 | 6.59 |
| O=S(=O)(O)CCCN1CCN(CCO)CC1 [EPPS] | 7.3-8.7 | 8 |
| O=S(=O)(O)CC(O)CNC(CO)(CO)CO (centres unmarked) [TAPSO, 3-[N-tris(hydroxymethyl)methylamino]-2-hydroxypropanesulfonic acid] | 7.0-8.2 | – |
| O=S(=O)(O)CCCNC1CCCCC1 [CAPS] | 9.7-11.1 | 10.4 |
| O=S(=O)(O)CC(O)CNC1CCCCC1 (centres unmarked) [CAPSO] | 8.9-10.3 | – |
| OCCN(CCO)CCO [TEA] | 7.3-8.3 | – |
| O=S(=O)(O)CCCNC(CO)(CO)CO [TAPS, [tris(hydroxymethyl)methylamino]propanesulfonic acid] | 7.7-9.1 | – |
| CC(C)(N)CO [AMP] | 9.0-10.5 | 9.7 |

The remaining lines, values ahead:

| Useful pH range | pKa at 25° C. | Compound |
| --- | --- | --- |
| 6.8-8.2 | – | O=S(=O)(O)CCNC(CO)(CO)CO [TES, 2-[[1,3-dihydroxy-2-(hydroxymethyl)propan-2-yl]amino]ethanesulfonic acid] |
| 2.1-7.4 | – | O=C(O)CC(O)(CC(=O)O)C(=O)O [Citric acid, 2-Hydroxypropane-1,2,3-tricarboxylic acid] |
| 8.2-9.6 | 8.9 | O=S(=O)(O)CCCCNC(CO)(CO)CO [TABS] |
| 7.8-9.7 | 8.8 | CC(N)(CO)CO [AMPD] |
| 7.0-8.2 | 7.6 | O=S(=O)(O)CC(O)CN(CCO)CCO (centres unmarked) [DIPSO] |
| 6.1-7.5 | 6.76 | O=S(=O)(O)CCN1CCN(CCS(=O)(=O)O)CC1 [PIPES, piperazine-N,N′-bis(2-ethanesulfonic acid)] |
| 6.3-9.5 | – | OCC(CO)(CO)NCCCNC(CO)(CO)CO [Bis-Tris Propane] |
| 7.5-8.9 | – | NCC(=O)NCC(=O)O [Gly-Gly] (H-Gly-Gly-OH) |
| 7.2-8.5 | 7.8 | O=S(=O)(O)CC(O)CN1CCN(CC(O)CS(=O)(=O)O)CC1 (centres unmarked) [POPSO] |
| 8.3-9.7 | 9 | CC(C)(CO)NCC(O)CS(=O)(=O)O (centres unmarked) [AMPSO] |
| 7.6-9.0 | 8.3 | O=S(=O)(O)CCCCN1CCN(CCO)CC1 [HEPBS] |
| 6.9-8.3 | 7.6 | O=S(=O)(O)CCCCN1CCOCC1 [MOBS] |
| 6.1-7.5 | 6.78 | NC(=O)CNCCS(=O)(=O)O [ACES] |
| 7.4-8.8 | – | O=C(O)CNC(CO)(CO)CO [Tricine, N-[tris(hydroxymethyl)methyl]glycine] |
